Structures are written as SMILES. Where a SMILES comes first, the peptide text is derived from it.

The target in the first test is HLA-A*0201 (Homo sapiens, UniProt P04439, D140Y/D185E/D98H/E176V/E277Q/G131W/G231S/I119V/I121R/I166T/I218V/L300P/L318F/N151K/N90K/P208A/P217A/Q86G/Q94H/R138H/R169H/T345S). Description: In vitro class I HLA binding assay (fluorescence polarization competition). The note with it: allele A*0201; cell-free competition, fluorescence polarization at 72 hours; Non-binder = no dose-dependent inhibition; read-out: IC50. The protocol: A cell-free class I HLA binding assay that allows for in vitro quantification of peptide-HLA binding affinity in a competition format was used. In this assay, a fluorescently labeled, high binding, control peptide is loaded onto 384-well ½-area plates along with unlabeled experimental peptides. To remove endogenous peptides and render the HLA A and B molecules receptive to binding, HLA is heated at 53°C for 15 minutes and immediately added to the assay. The mixture is then allowed to stand for three days. Once the mixture has reached steady equilibrium (at 72 hours), displacement of the high binding control peptide is measured through fluorescence polarization. Binding of experimental peptides is expressed as the percent inhibition of the labeled control peptide (experimental fluorescence / control fluorescence, multiplied by 100). The percent inhibition values for each experimental peptide (across a range of molar concentrations) are used to calculate the concentration which inhibits 50% of the labeled control peptide’s specific binding. This value is referred to as the peptide’s IC50.
As for `CC[C@H](C)[C@H](NC(=O)[C@H](CC(C)C)NC(=O)[C@@H](N)CO)C(=O)N[C@@H](CCCCN)C(=O)N[C@@H](CCC(N)=O)C(=O)N[C@@H](CC(N)=O)C(=O)N[C@@H](CCCCN)C(=O)N[C@@H](Cc1ccc(O)cc1)C(=O)N[C@H](C(=O)O)C(C)C` [EBA175_0116] (H-SLIKQNKYV-OH), the half-maximal inhibitory concentration (IC50) was determined as 29900 nM.

On to `CC[C@H](C)[C@H](NC(=O)[C@@H](NC(=O)[C@H](CC(N)=O)NC(=O)[C@H](CC(=O)O)NC(=O)[C@H](CC(N)=O)NC(=O)CNC(=O)[C@H](CC(N)=O)NC(=O)[C@H](CC(C)C)NC(=O)[C@@H](NC(=O)[C@@H](N)CO)C(C)C)[C@@H](C)O)C(=O)O` [EBA175_0436] (H-SVLNGNDNTI-OH), for which the 50% inhibitory concentration (IC50) came out at 640000 nM.

On to `CC[C@H](C)[C@H](NC(=O)[C@@H](NC(=O)[C@H](CC(N)=O)NC(=O)[C@H](CC(=O)O)NC(=O)[C@H](CC(N)=O)NC(=O)CNC(=O)[C@H](CC(N)=O)NC(=O)[C@H](CC(C)C)NC(=O)[C@@H](N)C(C)C)[C@@H](C)O)C(=O)O` [EBA175_0437] (H-VLNGNDNTI-OH), for which the IC50 stood at 7310 nM.

As for `CC[C@H](C)[C@H](NC(=O)[C@H](CO)NC(=O)[C@H](CCCCN)NC(=O)[C@H](Cc1ccccc1)NC(=O)[C@H](CCC(=O)O)NC(=O)[C@H](CO)NC(=O)[C@H](Cc1ccc(O)cc1)NC(=O)[C@H](CCSC)NC(=O)[C@@H](N)CCCCN)C(=O)O` [EBA175_0697] (H-KMYSEFKSI-OH), the 50% inhibitory concentration (IC50) came to 1020 nM.

For the molecule `CC(C)C[C@H](NC(=O)[C@H](CC(N)=O)NC(=O)[C@H](CC(=O)O)NC(=O)[C@@H](NC(=O)[C@@H](NC(=O)[C@H](CCC(=O)O)NC(=O)[C@H](Cc1ccccc1)NC(=O)[C@H](CC(C)C)NC(=O)[C@@H](N)Cc1ccccc1)C(C)C)[C@@H](C)O)C(=O)O` [EBA175_1461] (H-FLFEVTDNL-OH), the IC50 is 269 nM.

Still in this test, the particulars now being: allele A*0201; fluorescence polarization competition; read-out: IC50 (nM), in vitro HLA binding affinity.
For the molecule `CSCC[C@H](NC(=O)[C@H](Cc1ccc(O)cc1)NC(=O)[C@H](CCC(=O)O)NC(=O)[C@@H](NC(=O)[C@H](Cc1c[nH]c2ccccc12)NC(=O)[C@@H]1CCCN1C(=O)[C@H](CC(N)=O)NC(=O)CNC(=O)[C@H](CCSC)NC(=O)[C@@H](N)Cc1ccc(O)cc1)[C@@H](C)O)C(=O)O` [AMA1_105] (H-YMGNPWTEYM-OH), the IC50 is 21400 nM.

For `CC[C@H](C)[C@H](NC(=O)[C@H](CCSC)NC(=O)[C@@H](N)CO)C(=O)N[C@@H](CCCCN)C(=O)N[C@@H](CO)C(=O)N[C@@H](C)C(=O)N[C@@H](Cc1ccccc1)C(=O)N[C@@H](CC(C)C)C(=O)N1CCC[C@H]1C(=O)N[C@H](C(=O)O)[C@@H](C)O` [AMA1_373] (H-SMIKSAFLPT-OH), the half-inhibitory concentration (IC50) is 12500 nM.

Regarding `CC(C)C[C@H](NC(=O)[C@@H](N)Cc1ccccc1)C(=O)N1CCC[C@H]1C(=O)N[C@H](C(=O)NCC(=O)N[C@@H](C)C(=O)N[C@@H](Cc1ccccc1)C(=O)N[C@@H](CCCCN)C(=O)N[C@@H](C)C(=O)O)[C@@H](C)O` [AMA1_379] (H-FLPTGAFKA-OH), the IC50 turned out to be 1390 nM.

Take `CC[C@H](C)[C@H](NC(=O)[C@H](Cc1ccc(O)cc1)NC(=O)[C@H](CO)NC(=O)[C@H](CO)NC(=O)[C@H](CC(N)=O)NC(=O)[C@H](CC(N)=O)NC(=O)[C@@H](NC(=O)[C@H](CC(C)C)NC(=O)[C@@H](N)CS)[C@@H](C)CC)C(=O)O` [AMA1_418] (H-CLINNSSYI-OH): the IC50 came to 3820 nM.

On to `CC[C@H](C)[C@H](NC(=O)[C@@H](N)Cc1ccccc1)C(=O)N[C@@H](CO)C(=O)N[C@@H](CC(=O)O)C(=O)N[C@@H](CC(=O)O)C(=O)N[C@@H](CCCCN)C(=O)N[C@@H](CC(=O)O)C(=O)N[C@@H](CO)C(=O)N[C@@H](CC(C)C)C(=O)O` [AMA1_480] (H-FISDDKDSL-OH), for which the half-inhibitory concentration (IC50) came to 336000 nM.

Consider `CC[C@H](C)[C@H](NC(=O)[C@@H](NC(=O)[C@H](C)NC(=O)[C@H](CC(C)C)NC(=O)[C@@H](NC(=O)[C@H](C)N)C(C)C)[C@@H](C)O)C(=O)N[C@@H](CC(C)C)C(=O)N[C@@H](CCSC)C(=O)N[C@H](C(=O)O)C(C)C` [AMA1_556] (H-AVLATILMV-OH), for which the concentration for half-maximal inhibition (IC50) came to 23600 nM.

Turning to `CC(C)C[C@H](NC(=O)[C@H](Cc1ccccc1)NC(=O)[C@H](Cc1ccccc1)NC(=O)[C@H](Cc1ccc(O)cc1)NC(=O)[C@H](CCC(N)=O)NC(=O)[C@@H](NC(=O)CNC(=O)[C@H](CC(C)C)NC(=O)[C@@H](N)CCCCN)C(C)C)C(=O)O` [CYRPA_220] (H-KLGVQYFFL-OH), the IC50 amounted to 805 nM.

`CC[C@H](C)[C@H](NC(=O)[C@H](CC(N)=O)NC(=O)[C@H](CC(=O)O)NC(=O)CNC(=O)[C@@H](NC(=O)[C@@H](N)Cc1ccc(O)cc1)C(C)C)C(=O)N[C@@H](CC(N)=O)C(=O)N[C@@H](CC(N)=O)C(=O)N[C@H](C(=O)O)C(C)C` [CYRPA_242] (H-YVGDNINNV-OH): the half-maximal inhibitory concentration (IC50) amounted to 1820 nM.

`CC[C@H](C)[C@H](NC(=O)[C@H](CO)NC(=O)[C@H](CC(N)=O)NC(=O)[C@H](CCC(=O)O)NC(=O)[C@H](CC(N)=O)NC(=O)[C@H](CC(N)=O)NC(=O)[C@H](Cc1ccccc1)NC(=O)[C@H](Cc1ccccc1)NC(=O)[C@@H](NC(=O)[C@@H](N)Cc1ccc(O)cc1)[C@@H](C)CC)C(=O)O` [CYRPA_304] (H-YIFFNNENSI-OH): the IC50 was determined as 2830 nM.

`CC(C)C[C@H](NC(=O)CNC(=O)[C@H](CC(=O)O)NC(=O)[C@H](CC(N)=O)NC(=O)[C@@H](NC(=O)[C@H](CC(N)=O)NC(=O)[C@@H](NC(=O)[C@H](CC(N)=O)NC(=O)[C@H](CC(C)C)NC(=O)[C@@H](N)Cc1ccc(O)cc1)[C@@H](C)O)C(C)C)C(=O)O` [RH5_86] (H-YLNTNVNDGL-OH): the concentration for half-maximal inhibition (IC50) turned out to be 2830 nM.

As for `CC(C)C[C@H](NC(=O)[C@H](CCC(=O)O)NC(=O)[C@H](CCCCN)NC(=O)[C@H](Cc1ccccc1)NC(=O)[C@H](Cc1c[nH]cn1)NC(=O)[C@H](Cc1ccc(O)cc1)NC(=O)[C@H](CCC(N)=O)NC(=O)[C@H](CC(C)C)NC(=O)[C@@H](N)Cc1ccccc1)C(=O)O` [RH5_144] (H-FLQYHFKEL-OH), the IC50 stood at 14600 nM.

As to `CC[C@H](C)[C@H](NC(=O)[C@@H](N)CCCCN)C(=O)N[C@@H](CC(N)=O)C(=O)N[C@@H](CCC(=O)O)C(=O)N[C@H](C(=O)N[C@@H](Cc1ccc(O)cc1)C(=O)N[C@@H](CC(=O)O)C(=O)N[C@@H](CCCCN)C(=O)N[C@H](C(=O)O)C(C)C)[C@@H](C)O` [RH5_212] (H-KINETYDKV-OH), the IC50 worked out at 10100 nM.

Consider `CC[C@H](C)[C@H](NC(=O)[C@H](CC(C)C)NC(=O)[C@H](CCCCN)NC(=O)[C@H](Cc1c[nH]cn1)NC(=O)[C@@H](NC(=O)[C@@H](N)Cc1ccc(O)cc1)[C@@H](C)CC)C(=O)N[C@@H](CC(C)C)C(=O)N[C@@H](CO)C(=O)N[C@H](C(=O)O)C(C)C` [RH5_363] (H-YIHKLILSV-OH), for which the 50% inhibitory concentration (IC50) is 1150 nM.

On to `CC[C@H](C)[C@H](NC(=O)[C@H](Cc1ccccc1)NC(=O)[C@H](CCCCN)NC(=O)[C@@H](NC(=O)[C@@H](NC(=O)[C@H](CC(=O)O)NC(=O)[C@@H](NC(=O)[C@H](Cc1ccc(O)cc1)NC(=O)[C@@H](NC(=O)[C@@H](N)Cc1ccc(O)cc1)[C@@H](C)CC)[C@@H](C)CC)[C@@H](C)O)[C@@H](C)CC)C(=O)O` [RH5_404] (H-YIYIDTIKFI-OH), for which the IC50 amounted to 53100 nM.

With `CC[C@H](C)[C@H](N)C(=O)N[C@@H](CC(C)C)C(=O)N[C@@H](CC(=O)O)C(=O)N[C@@H](CCSC)C(=O)N[C@@H](CO)C(=O)N[C@@H](CC(N)=O)C(=O)N[C@@H](CCC(=O)O)C(=O)N[C@@H](Cc1ccc(O)cc1)C(=O)N[C@@H](CO)C(=O)N[C@@H](CC(C)C)C(=O)O` [RH5_459] (H-ILDMSNEYSL-OH), the half-maximal inhibitory concentration (IC50) was found to be 6870 nM.

Regarding `CC[C@H](C)[C@H](NC(=O)[C@H](Cc1ccccc1)NC(=O)[C@H](CC(C)C)NC(=O)[C@@H](N)CO)C(=O)N[C@H](C(=O)N[C@@H](CO)C(=O)N[C@@H](CC(=O)O)C(=O)N[C@@H](Cc1c[nH]cn1)C(=O)N[C@@H](CC(C)C)C(=O)O)[C@@H](C)O` [RH5_467] (H-SLFITSDHL-OH), the IC50 was 7120 nM.

In the case of `CSCC[C@H](NC(=O)[C@H](CCC(N)=O)NC(=O)[C@@H](N)CCCNC(=N)N)C(=O)N[C@@H](CC(C)C)C(=O)N[C@@H](Cc1ccc(O)cc1)C(=O)N[C@@H](CC(N)=O)C(=O)N[C@H](C(=O)N[C@@H](Cc1ccccc1)C(=O)N[C@@H](Cc1ccc(O)cc1)C(=O)N[C@@H](CO)C(=O)O)[C@@H](C)O` [RH5_476] (H-RQMLYNTFYS-OH), the 50% inhibitory concentration (IC50) amounted to 319000 nM.

In the case of `CC[C@H](C)[C@H](NC(=O)[C@H](CC(N)=O)NC(=O)[C@H](CC(N)=O)NC(=O)[C@H](CC(C)C)NC(=O)[C@@H](N)Cc1c[nH]cn1)C(=O)N[C@@H](Cc1ccccc1)C(=O)N[C@@H](Cc1c[nH]cn1)C(=O)N[C@@H](Cc1c[nH]cn1)C(=O)N[C@@H](CC(C)C)C(=O)O` [RH5_489] (H-HLNNIFHHL-OH), the IC50 was 225 nM.

`CC[C@H](C)[C@H](NC(=O)[C@H](CC(C)C)NC(=O)[C@H](Cc1c[nH]cn1)NC(=O)[C@H](Cc1c[nH]cn1)NC(=O)[C@H](Cc1ccccc1)NC(=O)[C@@H](NC(=O)[C@@H](N)CC(N)=O)[C@@H](C)CC)C(=O)N[C@@H](Cc1ccc(O)cc1)C(=O)N[C@H](C(=O)O)C(C)C` [RH5_492] (H-NIFHHLIYV-OH): the 50% inhibitory concentration (IC50) is 2290 nM.

With `CC(C)C[C@H](NC(=O)[C@H](CO)NC(=O)[C@H](Cc1ccccc1)NC(=O)[C@@H](NC(=O)[C@H](CC(C)C)NC(=O)[C@@H](N)CCCCN)[C@@H](C)O)C(=O)N[C@@H](CC(=O)O)C(=O)N[C@@H](Cc1c[nH]cn1)C(=O)N[C@@H](CCCNC(=N)N)C(=O)N[C@H](C(=O)O)C(C)C` [RIPR_0035] (H-KLTFSLDHRV-OH), the IC50 came out at 8880 nM.

The values above are taken from PMC8294059, “Identification and Immune Assessment of T Cell Epitopes in Five Plasmodium falciparum Blood Stage Antigens to Facilitate Vaccine Candidate Selection and Optimization” (Frontiers in Immunology, 2021).
